Measurements: US8735414B2 (priority 2009, dated 2014)

Tests used:
[1] = test system: bicistronic HCV replicon (replicon RNA, GenBank Accession No. AJ242654); assay: HCV Replicon Assay; type: cell-based; conditions: Hepatitis C virus, 72 h, read-out: Replicon IC50

| SMILES | IC50 [1] | melting point |
| --- | --- | --- |
| C[C@H](NS(=O)(=O)c1cnc(-c2c(C#N)c3ccc(CC(F)F)cc3n2C2CCCC2)nc1)C1CC1 [compound 597, 2-[3-cyano-1-cyclopentyl-6-(2,2-difluoroethyl)-1H-indol-2-yl]-N-[(1S)-1-cyclopropylethyl]pyrimidine-5-sulfonamide] | < 0.5 µM | 181 to 189 °C |
| Cc1cncc(-n2c(-c3ccc(S(=O)(=O)N[C@@H](C)C(F)(F)F)cn3)c(C#N)c3cc(F)c(C)cc32)n1 [compound 915, 6-[3-cyano-5-fluoro-6-methyl-1-(6-methylpyrazin-2-yl)-1H-indol-2-yl]-N-[(2S)-1,1,1-trifluoropropan-2-yl]pyridine-3-sulfonamide] | < 0.5 µM | 211 to 215 °C |
| Cc1ccc2c(C#N)c(-c3ccc(S(=O)(=O)N[C@@H](C)C(F)(F)F)cn3)n(CC3CC3)c2c1 [compound 353, 6-[3-cyano-1-(cyclopropylmethyl)-6-methyl-1H-indol-2-yl]-N-[(2S)-1,1,1-trifluoropropan-2-yl]pyridine-3-sulfonamide] | < 0.5 µM | 165 to 168 °C |
| COc1ccc2c(C#N)c(-c3ncc(S(=O)(=O)NC(CF)CF)cn3)n(C3CCCCC3)c2c1 [compound 520, 2-(3-cyano-1-cyclohexyl-6-methoxy-1H-indol-2-yl)-N-(1,3-difluoropropan-2-yl)pyrimidine-5-sulfonamide] | 0.5 to 2 µM | 209 to 215 °C |
| CCc1cc2c(cc1F)c(C#N)c(-c1ccc(S(=O)(=O)N[C@@H](C)C(F)(F)F)cn1)n2C1CCC1 [compound 640, 6-(3-cyano-1-cyclobutyl-6-ethyl-5-fluoro-1H-indol-2-yl)-N-[(2S)-1,1,1-trifluoropropan-2-yl]pyridine-3-sulfonamide] | < 0.5 µM | 205 to 206 °C |
| CC(C)c1ccc2c(C#N)c(-c3ncc(S(=O)(=O)N[C@@H](C)C(F)(F)F)cn3)n(C3CCC3)c2c1 [compound 455, 2-[3-cyano-1-cyclobutyl-6-(propan-2-yl)-1H-indol-2-yl]-N-[(2S)-1,1,1-trifluoropropan-2-yl]pyrimidine-5-sulfonamide] | < 0.5 µM | 217 to 222 °C |
| CC(=O)c1ccc(-n2c(-c3ccc(S(=O)(=O)N[C@@H](C)C(F)(F)F)cn3)c(C#N)c3cc(F)c(C)cc32)s1 [compound 1035, 6-[1-(5-acetylthiophen-2-yl)-3-cyano-5-fluoro-6-methyl-1H-indol-2-yl]-N-[(2S)-1,1,1-trifluoropropan-2-yl]pyridine-3-sulfonamide] | 0.5 to 2 µM | 235.6 to 238.7 °C |
| CCNC(=O)c1c(-c2ccc(S(=O)(=O)N[C@@H](C)C(F)(F)F)cn2)n(C2CCCC2)c2cc(C)c(F)cc12 [compound 762, 1-cyclopentyl-N-ethyl-5-fluoro-6-methyl-2-(5-{[(2S)-1,1,1-trifluoropropan-2-yl]sulfamoyl}pyridin-2-yl)-1H-indole-3-carboxamide] | < 0.5 µM | 160 to 162 °C |
| Cc1cc2c(cc1F)c(C(N)=O)c(-c1ccc(S(N)(=O)=O)cn1)n2C1CCCCC1 [compound 715, 1-cyclohexyl-5-fluoro-6-methyl-2-(5-sulfamoylpyridin-2-yl)-1H-indole-3-carboxamide] | < 0.5 µM | 254 to 257 °C |
| N#Cc1c(-c2ncc(S(=O)(=O)NC(CF)CF)cn2)n(C2CCCC2)c2cc(CC(F)F)ccc12 [compound 599, 2-[3-cyano-1-cyclopentyl-6-(2,2-difluoroethyl)-1H-indol-2-yl]-N-(1,3-difluoropropan-2-yl)pyrimidine-5-sulfonamide] | < 0.5 µM | 174 to 210 °C |
| C[C@H](NS(=O)(=O)c1ccc(-c2c(C#N)c3cc(F)ccc3n2C2CCCC2)nc1)C1CC1 [compound 143, 6-(3-cyano-1-cyclopentyl-5-fluoro-1H-indol-2-yl)-N-[(1S)-1-cyclopropylethyl]pyridine-3-sulfonamide] | < 0.5 µM | 159 to 160 °C |
| CCc1cc2c(cc1F)c(S(C)(=O)=O)c(-c1ccc(S(=O)(=O)NC(C)(C)C)cn1)n2-c1ncccn1 [compound 869, N-tert-butyl-6-(6-ethyl-5-fluoro-3-(methylsulfonyl)-1-(pyrimidin-2-yl)-1H-indol-2-yl)pyridine-3-sulfonamide] | 0.5 to 2 µM | 244 to 248 °C |
| Cc1cc2c(cc1F)c(C#N)c(-c1ccc(S(=O)(=O)N[C@@H](C)C(F)(F)F)cn1)n2-c1cccnc1 [compound 893, 6-[3-cyano-5-fluoro-6-methyl-1-(pyridin-3-yl)-1H-indol-2-yl]-N-[(2S)-1,1,1-trifluoropropan-2-yl]pyridine-3-sulfonamide] | < 0.5 µM | 217 to 221 °C |
| C[C@@H](NS(=O)(=O)c1ccc(-c2c(C#N)c3cc(Cl)ccc3n2-c2ccccn2)nc1)C(F)(F)F [compound 491, 6-[5-chloro-3-cyano-1-(pyridin-2-yl)-1H-indol-2-yl]-N-[(2R)-1,1,1-trifluoropropan-2-yl]pyridine-3-sulfonamide] | 0.5 to 2 µM | 150 to 154 °C |
| Cc1ccc2c(C#N)c(-c3ncc(S(=O)(=O)NC(C)C)cn3)n(C3CCC3)c2c1 [compound 169, 2-(3-cyano-1-cyclobutyl-6-methyl-1H-indol-2-yl)-N-(propan-2-yl)pyrimidine-5-sulfonamide] | < 0.5 µM | 217 to 219 °C |
| Cc1c(F)cc2c(C#N)c(-c3ccc(S(=O)(=O)NC(C)(C)C(F)(F)F)cn3)n(C3CCC3)c2c1F [compound 577, 6-(3-cyano-1-cyclobutyl-5,7-difluoro-6-methyl-1H-indol-2-yl)-N-(1,1,1-trifluoro-2-methylpropan-2-yl)pyridine-3-sulfonamide] | < 0.5 µM | 180 to 187 °C |
| CC(C)NS(=O)(=O)c1cnc(-c2c(C#N)c3ccc(OC(F)(F)F)cc3n2C2CCCC2)nc1 [compound 117, 2-[3-cyano-1-cyclopentyl-6-(trifluoromethoxy)-1H-indol-2-yl]-N-(propan-2-yl)pyrimidine-5-sulfonamide] | 0.5 to 2 µM | 216 to 218 °C |
| C[C@H](NS(=O)(=O)c1ccc(-c2c(C#N)c3ccc(C#N)cc3n2CC2CC2)nc1)C1CC1 [compound 350, N-[(1S)-1-cyclopropylethyl]-6-[3,6-dicyano-1-(cyclopropylmethyl)-1H-indol-2-yl]pyridine-3-sulfonamide] | 0.5 to 2 µM | 203 to 208 °C |
| CCc1cc2c(cc1F)c(C#N)c(-c1ccc(S(=O)(=O)N[C@@H](C)C(F)(F)F)cn1)n2-c1ccncn1 [compound 964, 6-[3-cyano-6-ethyl-5-fluoro-1-(pyrimidin-4-yl)-1H-indol-2-yl]-N-[(2S)-1,1,1-trifluoropropan-2-yl]pyridine-3-sulfonamide] | < 0.5 µM | 202 to 206 °C |
| N#Cc1c(-c2ccc(S(=O)(=O)NC(CF)CF)cn2)n(C2CCCC2)c2cc(Cl)ccc12 [compound 64, 6-(6-chloro-3-cyano-1-cyclopentyl-1H-indol-2-yl)-N-(1,3-difluoropropan-2-yl)pyridine-3-sulfonamide] | < 0.5 µM | 236 to 240 °C |
| C[C@H](NS(=O)(=O)c1cnc(-c2c(C#N)c3cc(F)ccc3n2C2CCCCC2)nc1)C1CC1 [compound 528, 2-(3-cyano-1-cyclohexyl-5-fluoro-1H-indol-2-yl)-N-[(1S)-1-cyclopropylethyl]pyrimidine-5-sulfonamide] | < 0.5 µM | 219 to 221 °C |
| Cc1ccc2c(C#N)c(-c3ncc(S(=O)(=O)NC(CF)CF)cn3)n(C3CCCCC3)c2c1 [compound 241, 2-(3-cyano-1-cyclohexyl-6-methyl-1H-indol-2-yl)-N-(1,3-difluoropropan-2-yl)pyrimidine-5-sulfonamide] | < 0.5 µM | 225 to 230 °C |
| CC(C)NS(=O)(=O)c1cnc(-c2c(C#N)c3ccc(C(F)F)cc3n2C2CCC2)nc1 [compound 332, 2-[3-cyano-1-cyclobutyl-6-(difluoromethyl)-1H-indol-2-yl]-N-(propan-2-yl)pyrimidine-5-sulfonamide] | < 0.5 µM | 221 to 227 °C |
| C[C@H](NS(=O)(=O)c1ccc(-c2c(C#N)c3cc(C(F)(F)F)ccc3n2-c2cnccn2)nc1)C(F)(F)F [compound 897, 6-[3-cyano-1-(pyrazin-2-yl)-5-(trifluoromethyl)-1H-indol-2-yl]-N-[(2S)-1,1,1-trifluoropropan-2-yl]pyridine-3-sulfonamide] | < 0.5 µM | 255 to 258 °C |
| Cc1ccc2c(C#N)c(-c3ncc(S(=O)(=O)NC(CF)CF)cn3)n(C(C)C)c2c1 [compound 134, 2-[3-cyano-6-methyl-1-(propan-2-yl)-1H-indol-2-yl]-N-(1,3-difluoropropan-2-yl)pyrimidine-5-sulfonamide] | < 0.5 µM | 213 to 215 °C |
| C[C@H](NS(=O)(=O)c1cnc(-c2c(C#N)c3ccc(C4CC4)cc3n2C2CCC2)nc1)C(F)(F)F [compound 324, 2-(3-cyano-1-cyclobutyl-6-cyclopropyl-1H-indol-2-yl)-N-[(2S)-1,1,1-trifluoropropan-2-yl]pyrimidine-5-sulfonamide] | < 0.5 µM | 214 to 215 °C |
| Cc1cc2c(cc1F)c(C#N)c(-c1ccc(S(=O)(=O)N[C@@H](C)C(F)(F)F)cn1)n2-c1ccc(F)c(C)n1 [compound 961, 6-[3-cyano-5-fluoro-1-(5-fluoro-6-methylpyridin-2-yl)-6-methyl-1H-indol-2-yl]-N-[(2S)-1,1,1-trifluoropropan-2-yl]pyridine-3-sulfonamide] | < 0.5 µM | 240 to 246 °C |
| C[C@H](NS(=O)(=O)c1ccc(-c2c(C#N)c3ccc(F)cc3n2CC2CC2)nc1)C(F)(F)F [compound 397, 6-[3-cyano-1-(cyclopropylmethyl)-6-fluoro-1H-indol-2-yl]-N-[(2S)-1,1,1-trifluoropropan-2-yl]pyridine-3-sulfonamide] | < 0.5 µM | 174 to 175 °C |
